Measurements: article PMC3772838, “Preclinical Development of a Novel Class of CXCR4 Antagonist Impairing Solid Tumors Growth and Metastases” (PLoS ONE, 2013)
Where two headings read alike, the source gives them in different places. Bridges are numbered along the chain shown (N, C = ends). Where no end group is shown, it is not given here.

Columns and labels:
CXCR4 = experiment: CXCL12-induced calcium mobilization assay (Fluo-3 AM); assay type: cell-based, human; details: CCRF-CEM cells, 10 µM peptide, percent of fluorescence with CXCL12 alone; at least three experiments
Description: For the calcium efflux studies a 2 mg/mL stock solution of Fluo-3 acetoxymethylester (Invitrogen, Carlsbad, CA) in anhydrous DMSO was used. […] CCRF–CEM cells were resuspended in cell loading buffer (PBS, 1% FCS, 1 mmol/L MgCl2, and 1 mmol/L CaCl2) at 5×10^5 cells/mL. Fluo-3AM and Pluronic acid were added to each sample to increase Fluo-3AM solubility and improve dye loading into the cells. Baseline calcium efflux was established, then chemokines were added as indicated and chemokine-induced calcium efflux was measured.
(A) The amount of peptides or AMD3100 bound was assessed indirectly by flow cytometry using the PE-labelled anti-CXCR4 antibody (clone 12G5). Results are expressed as the percent antibody bound. (B) The Ca^2+ influx assay was performed using CCRF-CEM cells and Fluo-3 AM calcium indicator. CCRF-CEM cells were incubated 30 minutes at 37°C with Fluo-3 AM and 15 minutes with AMD3100 (10 µM)/peptides (10 µM) and then treated with CXCL12. Results are expressed as the percent of Fluo-3 AM fluorescence in presence of CXCL12 alone. Each peptide was tested in at least three different experiments. Double tailed T-Test was used for statistical analyses. Differences were considered significant at P<0.05 compared to control. Control (CTRL).

[1] = test system: K7M2 murine osteosarcoma cells; experiment: K7M2 in vitro migration; assay type: cell-based, mouse; details: Figure 4
Description: Migration was assayed in 24-well Transwell chambers (Corning Inc., Corning, NY) using inserts with an 8-µm pore membrane. Membranes were precoated with collagen (human collagen type I/III) and fibronectin (20 µg/mL each). […] After 16 h incubation, cells on the upper surface of the filter were removed using a cotton wool swab; migration of cells in migration media alone was compared with migration in media containing CXCL12. The cells were counted in ten different fields (original magnification ×40). The migration index was defined as the ratio between migrating cells in the experimental group and migrated cells in the control group. For the wound closure assay, tested cells were allowed to reach confluence in six-well plates containing serum-depleted growth medium and scratched with pipette tips to make wounds. The wound closure was observed microscopically 6 hours post-wounding (OKO Time Lapse).

[2] = test system: human cancer cell lines (SN12C, RXF393, A498 and PES43); experiment: Cytotoxicity on human cancer cell lines; assay type: cell-based
[3] = test system: CCRF-CEM human T-Leukemia cells; experiment: CCRF-CEM cell migration; assay type: cell-based; details: Figure S4
Description: [The procedure below names another cell line; the source lists this cell line under the same test.] Migration was assayed in 24-well Transwell chambers (Corning Inc., Corning, NY) using inserts with an 8-µm pore membrane. Membranes were precoated with collagen (human collagen type I/III) and fibronectin (20 µg/mL each). PES43 cells were placed in the upper chamber (2.5×10^5 cells/well) in IMDM containing 1% BSA (migration media) in the presence of AMD3100 or peptides; 100 ng/mL CXCL12 was added to the lower chamber. After 16 h incubation, cells on the upper surface of the filter were removed using a cotton wool swab; migration of cells in migration media alone was compared with migration in media containing CXCL12. The cells were counted in ten different fields (original magnification ×40). The migration index was defined as the ratio between migrating cells in the experimental group and migrated cells in the control group. For the wound closure assay, tested cells were allowed to reach confluence in six-well plates containing serum-depleted growth medium and scratched with pipette tips to make wounds. The wound closure was observed microscopically 6 hours post-wounding (OKO Time Lapse).
(TIF) Click here for additional data file.

| Substance | CXCL12-induced calcium efflux (Fluo-3 AM fluorescence) (CXCR4) | K7M2 in vitro migration [1] | cytotoxicity ([2]; SN12C, RXF393, A498 and PES43, Figure S2) | cytotoxicity [2] | CCRF-CEM migration [3] |
| --- | --- | --- | --- | --- | --- |
| [Cys-Trp-His-Arg-Cys] (CWHRC; disulfide 1-5) [Peptide I, v-MIP-II mimetic disulfide-cyclic peptide] | Minimal effect | reduced | no toxicity |  |  |
| Arg-Ala-[Cys-Arg-His-Trp-Cys] (RACRHWC; disulfide 3-7) [Peptide S, CXCL12-mimetic disulfide-cyclic peptide] | 49.75 % of control | reduced |  | no toxicity |  |
| Arg-Ala-[Cys-Arg-Phe-Phe-Cys] (RACRFFC; disulfide 3-7) [Peptide R, CXCL12-mimetic disulfide-cyclic peptide] | 51.25 % of control | reduced |  | no toxicity | inhibited CCRF-CEM human T-Leukemia cells migration in a dose-dependent manner |
